The values below come from patent US11970474B2, “Substituted benzodiazoles and use thereof in therapy” (THOMAS HELLEDAYS STIFTELSE FÖR MEDICINSK FORSKNING, priority 2018, dated 2024).

Like-named read-outs stand apart in the source and are kept apart here. A value given as a limit tells only on which side of the number the result lay.

One test deals with CCL2. In words: Mouse CCL2 assay in MLE12 cells. To be noted: Mus musculus, MLE12, 30 h. It counts as cell-based. From the text:
Cisbio mouse CCL2 assay is intended for the quantitative measurement of CCL2 in supernatant using HTRF® technology. The assay is compatible with mouse samples, and is highly specific for CCL2. CCL2 is detected in a sandwich assay format using 2 different specific antibodies, one labeled with Cryptate (donor) and the second with d2 (acceptor). The detection principle is based on HTRF® technology. When the labelled antibodies bind to the same antigen, the excitation of the donor with a light source (laser or flash lamp) triggers a Fluorescence Resonance Energy Transfer (FRET) towards the acceptor, which in turn fluoresces at a specific wavelength (665 nm). The two antibodies bind to the CCL2 present in the sample, thereby generating FRET. Signal intensity is proportional to the number of antigen-antibody complexes formed and therefore to the CCL2 concentration. • Materials: • Cells: MLE12 (Mouse Lung Epithelial cells, SV40 transformed) • Medium: DMEM/F12 (Gibco #11330057), FBS 5% (Gibco #10500064), Pen/Strep 50 U/50 μg/ml (Gibco #15070063) • Cell plates: 384-well, black/clear, TC-treated (Corning #3764) • Source plate: Labcyte LDV 384 (Labcyte #LP-0200) • Compound dilution plate: V-bottom 384-well PP plate (Greiner #781280) • Compounds: 10 mM stocks in DMSO • HTRF plates: 384-well, white, half area, non-binding (Costar #3824) • Mouse CCL2 kit: Cisbio 62MCCL2PEH • Other reagents: Trypsin/EDTA 10× (Gibco #15400054), PBS (Gibco #14190169), Resazurin (Sigma-Aldrich #199303), 1 mg/ml in PBS, TNF-α 200 μg/ml in PBS (Peprotech #300-01A) • Instruments: • Echo liquid handler (Labcyte) • Multidrop Combi (Thermo Scientific) • Sense plate reader (Hidex) Compound Handling:
(§1) Stock solutions (10 mM in DMSO) of compounds were dispensed in V-bottom 384-well plates and the following dilutions were prepared: 10 mM and 0.05 mM. The dilutions were transferred to the source plate. Duplicate 6 points dose-response curves of compounds were nano-dispensed in cell plates (CCL2 assay) and in parallel, 11 points DR curves in duplicates were nano-dispensed for the viability assay. The plates were heat sealed and kept at RT until use.
(§2) MLE12 cells in flasks were washed once with PBS, detached with Trypsin/EDTA, resuspended in fresh medium and counted. Cells were diluted to 3×10^5 cells/ml and seeded with Multidrop Combi in cell plates pre-dispensed with compounds, 25 μl/well (7500 cells/well). The plates were placed, one by one, in a CO2-incubator at 37° C. for 1 hour after which 25 μl/well of TNF-α (final concentration 20 ng/ml) were added. The plates were transferred back to the CO2-incubator placed in a plastic box with wet tissue in the bottom, to avoid evaporation, for 30 hours.
After 30 hours incubation, the plates were spun down 5 minutes at 400 g, and 16 μl/well of the supernatants were transferred to the assay plate. A mCCL2 standard curve was prepared according to the kit protocol and 16 μl/well of the standards were also added to the assay plate.
The anti-CCL2 antibody mix was prepared according to the kit protocol, and 4 μl/well were added to the assay plate. The plate was sealed and incubated over night at RT. After incubation the plate was read in Sense plate reader with Time-resolved FRET protocol (Ex330 nm/Em 620 and 665 nm). After data reduction, the delta ratios were imported to an excel template where the IC50 values were calculated.

A further test addresses OGG1 (Homo sapiens (Human), UniProt O15527). Kind of test: In vitro OGG1 activity assay. It counts as biochemical. To be noted: 800 pM OGG1 enzyme, 2 nM human APEX1, 10 nM 8-oxoA:C substrate. The gist of the method:
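Fluorescence-release assay on a duplex oligonucleotide carrying an OGG1 substrate base beside a fluorophore, quenched from the complementary strand. Excess APEX1 cleaves the abasic site left by base excision, melting the duplex and unquenching the fluorophore. Compounds in DMSO were dispensed before enzyme and substrate, and fluorescein signal was read.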

Another test deals with MLE12 cells. Kind of test: Cell viability assay in MLE12 cells (resazurin). In kind it is cell-based, mouse. To be noted: Mus musculus, TNF-α 20 ng/ml, resazurin added after 24 hours culture. As for the experimental part:
as §1, §2
After 24 hours culture, resazurin reagent (stock 1 mg/ml in PBS) diluted 1:17 in PBS was added with Multidrop Combi, 10 μl/well, and plates were incubated for 6 hours. Plates were read in Sense plate reader with resorufin protocol (ex544 nm/em595 nm). The results were imported to an excel template where the EC50 values were calculated using XLfit.
In general terms: Alamar Blue is a resazurin reagent that responds to reducing activity.

[1] abbreviates: MLE12 cells, TNF-α 20 ng/ml, supernatant after 30 hours, HTRF, read-out: CCL2 (EC50).

Sequence of OGG1 (O15527 whole entry): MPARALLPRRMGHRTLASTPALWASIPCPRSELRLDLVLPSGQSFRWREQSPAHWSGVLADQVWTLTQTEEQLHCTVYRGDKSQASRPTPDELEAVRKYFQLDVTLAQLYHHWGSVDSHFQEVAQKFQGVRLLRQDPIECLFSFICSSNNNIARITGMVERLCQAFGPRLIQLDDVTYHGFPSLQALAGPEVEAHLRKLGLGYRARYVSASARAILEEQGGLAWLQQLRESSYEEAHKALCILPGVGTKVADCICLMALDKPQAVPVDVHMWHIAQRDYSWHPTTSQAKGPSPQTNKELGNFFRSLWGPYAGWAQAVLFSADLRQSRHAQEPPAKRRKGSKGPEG

Regarding `COc1cc(NC(=O)[C@H]2CC[C@@H](n3c(=O)[nH]c4c(OCCN(C)C(=O)OC(C)(C)C)cccc43)CC2)ccc1C` [Example 308, tert-Butyl N-methyl-N-[2-({2-oxo-1-[cis-4-[(3-methoxy-4-methylphenyl)carbamoyl]cyclohexyl]-2,3-dihydro-1H-1,3-benzodiazol-4-yl}oxy)ethyl]carbamate], in the test with CCL2 (setting [1]), the EC50 is 2040 nM. Also, the IC50 against OGG1 was 0.157 µM; with MLE12 cells (MLE12, 24 h) it was 0.215 µM. For `COc1cc(NC(=O)N2C3CCC2CC(n2c(=O)[nH]c4c(Br)cccc42)C3)ccc1C` (stereo not drawn) [Example 85, 3-(4-Bromo-2-oxo-2,3-dihydro-1H-1,3-benzodiazol-1-yl)-N-(3-methoxy-4-methylphenyl)-(endo)-8-azabicyclo[3.2.1]octane-8-carboxamide], in the test with CCL2 (read-out: CCL2 (EC50, nM)), the EC50 turned out to be 39200 nM. The results for the IC50 on OGG1 and in the test on MLE12 cells were 0.033 µM and 17.2 µM, respectively. On the same counts, the results for `Cc1cc(NC(=O)N2C3CCC2CC(n2c(=O)[nH]c4c(Br)cccc42)C3)ccc1I` (stereo not drawn) [Example 84, 3-(4-Bromo-2-oxo-2,3-dihydro-1H-1,3-benzodiazol-1-yl)-N-(4-iodo-3-methylphenyl)-(endo)-8-azabicyclo[3.2.1]octane-8-carboxamide] are 23900 nM, 0.03 µM and 8.14 µM. In the case of `O=c1[nH]c2c(Br)cccc2n1[C@H]1CC[C@@H](C(=O)Nc2ccc(Cl)c(Cl)c2)CC1` [Example 118, (Cis)-4-(4-bromo-2-oxo-2,3-dihydro-1H-1,3-benzodiazol-1-yl)-N-(3,4-dichlorophenyl)cyclohexane-1-carboxamide], the EC50 in the test with CCL2 (setting [1]) is 16700 nM. The IC50 turned out to be 0.234 µM against OGG1 and 5.39 µM in the test on MLE12 cells (MLE12, 24 h). Take `COc1cc(NC(=O)[C@H]2CC[C@@H](n3c(=O)[nH]c4c(C(=O)N5CCN(C)CC5)cccc43)CC2)ccc1C` [Example 268, Cis-N-(3-methoxy-4-methylphenyl)-4-[4-(4-methylpiperazine-1-carbonyl)-2-oxo-2,3-dihydro-1H-1,3-benzodiazol-1-yl]cyclohexane-1-carboxamide]: the EC50 in the test with CCL2 (setting [1]) is more than 100000 nM. In addition, the IC50 against OGG1 is 0.153 µM; in the test on MLE12 cells (MLE12, 24 h), 13.4 µM.

`O=C(Nc1ccc(I)cc1)N1CCC(n2c(=O)[nH]c3c(-c4cccnc4)cccc32)CC1` [Example 26, N-(4-iodophenyl)-4-[2-oxo-4-(pyridin-3-yl)-2,3-dihydro-1H-1,3-benzodiazol-1-yl]piperidine-1-carboxamide]: the EC50 in the test on CCL2 (setting [1]) worked out at 15000 nM. Further, half-maximal inhibition in the test with MLE12 cells (MLE12, 24 h) (IC50) required 7.7 µM. With `COc1cc(NC(=O)[C@H]2CC[C@@H](n3c(=O)[nH]c4c(N)cccc43)CC2)ccc1C` [Example 249, Cis-4-(4-amino-2-oxo-2,3-dihydro-1H-1,3-benzodiazol-1-yl)-N-(3-methoxy-4-methylphenyl)cyclohexane-1-carboxamide], the EC50 with CCL2 (setting [1]) amounted to 34700 nM. In the test on MLE12 cells (MLE12, 24 h), this molecule gave an IC50 of 15.7 µM. As to `O=C(Nc1ccc(I)cc1)N1CCC(n2c(=O)[nH]c3cc(Cl)ccc32)CC1` [Example 2, 4-(5-Chloro-2-oxo-2,3-dihydro-1H-1,3-benzodiazol-1-yl)-N-(4-iodophenyl) piperidine-1-carboxamide], in the test with CCL2 (setting [1]), the EC50 was determined as 15400 nM. Moreover, the IC50 in the test on MLE12 cells (MLE12, 24 h) was found to be 10.3 µM. With `Nc1cccc2c1[nH]c(=O)n2C1CCN(C(=O)Nc2ccc(I)cc2)CC1` [Example 20, 4-(4-Amino-2-oxo-2,3-dihydro-1H-1,3-benzodiazol-1-yl)-N-(4-iodophenyl)piperidine-1-carboxamide], the EC50 with CCL2 (setting [1]) is 33000 nM. In the test on MLE12 cells (MLE12, 24 h), this molecule returned an IC50 of 11.5 µM. On to `COc1cc(NC(=O)[C@H]2CC[C@@H](n3c(=O)[nH]c4c(Br)cccc43)CC2)ccc1F` [Example 130, (Cis)-4-(4-bromo-2-oxo-2,3-dihydro-1H-1,3-benzodiazol-1-yl)-N-(4-fluoro-3-methoxyphenyl)cyclohexane-1-carboxamide], for which, in the test on CCL2 (setting [1]), the EC50 was determined as 22600 nM. This molecule registered an IC50 with MLE12 cells (MLE12, 24 h) of 6.36 µM. As for `O=C(Nc1ccc(I)cc1)N1CCC(n2c(=O)[nH]c3c(-n4cc(Br)cn4)cccc32)CC1` [Example 41, 4-[4-(4-Bromo-1H-pyrazol-1-yl)-2-oxo-2,3-dihydro-1H-1,3-benzodiazol-1-yl]-N-(4-iodophenyl)piperidine-1-carboxamide], in the test on CCL2 (setting [1]), the half-maximal effective concentration (EC50) was 50700 nM. This molecule came in with an IC50 with MLE12 cells (MLE12, 24 h) of 16.6 µM. With `Cc1ccc(NC(=O)[C@H]2CC[C@@H](n3c(=O)[nH]c4c(Br)cccc43)CC2)cc1C` [Example 124, (Cis)-4-(4-bromo-2-oxo-2,3-dihydro-1H-1,3-benzodiazol-1-yl)-N-(3,4-dimethylphenyl)cyclohexane-1-carboxamide], in the test on CCL2 (setting [1]), the concentration for a half-maximal effect (EC50) turned out to be 31200 nM. For the same molecule, the midpoint of inhibition with MLE12 cells (MLE12, 24 h), the IC50, lay at 11.5 µM. Regarding `O=c1[nH]c2c(Br)cccc2n1[C@H]1CC[C@@H](C(=O)Nc2ccc(Cl)c(F)c2)CC1` [Example 121, (Cis)-4-(4-bromo-2-oxo-2,3-dihydro-1H-1,3-benzodiazol-1-yl)-N-(4-chloro-3-fluorophenyl)cyclohexane-1-carboxamide], the EC50 in the test with CCL2 (setting [1]) came out at 13000 nM. The molecule further showed an IC50 in the test with MLE12 cells (MLE12, 24 h) of 4.86 µM. Consider `N#Cc1ccc(NC(=O)[C@H]2CC[C@@H](n3c(=O)[nH]c4c(Br)cccc43)CC2)cc1` [Example 132, (Cis)-4-(4-bromo-2-oxo-2,3-dihydro-1H-1,3-benzodiazol-1-yl)-N-(4-cyanophenyl)cyclohexane-1-carboxamide], for which, at OGG1, the IC50 turned out to be 6.83 µM. At OGG1, `COc1ncc(NC(=O)[C@H]2CC[C@@H](n3c(=O)[nH]c4c(F)cccc43)CC2)cc1C` [Example 214, Cis-4-(4-fluoro-2-oxo-2,3-dihydro-1H-1,3-benzodiazol-1-yl)-N-(6-methoxy-5-methylpyridin-3-yl)cyclohexane-1-carboxamide] yielded an IC50 of 0.556 µM. Molecule `O=C(O)c1ccc(-c2cccc3c2[nH]c(=O)n3C2CCN(C(=O)Nc3ccc(Cl)c(Cl)c3)CC2)cc1` [Example 35, 4-(1-{1-[(3,4-Dichlorophenyl)carbamoyl]piperidin-4-yl}-2-oxo-2,3-dihydro-1H-1,3-benzodiazol-4-yl)benzoic acid] gave an IC50 against OGG1 of 1.97 µM. On OGG1, `O=C(Nc1cnc(Cl)c(Cl)c1)N1CCC(n2c(=O)[nH]c3c(Br)cccc32)CC1` [Example 109, 4-(4-Bromo-2-oxo-2,3-dihydro-1H-1,3-benzodiazol-1-yl)-N-(5,6-dichloropyridin-3-yl)piperidine-1-carboxamide] registered an IC50 of 6.46 µM. For the molecule `COc1cc(NC(=O)[C@H]2CC[C@@H](n3c(=O)[nH]c4c(NC(=O)c5nccn5C)cccc43)CC2)ccc1C` [Example 318, 1-Methyl-N-{2-oxo-1-[cis-4-[(3-methoxy-4-methylphenyl)carbamoyl]cyclohexyl]-2,3-dihydro-1H-1,3-benzodiazol-4-yl}-1H-imidazole-2-carboxamide], 0.0795 µM corresponded to half-maximal inhibition at OGG1 (IC50). Molecule `COc1cc(NC(=O)[C@H]2CC[C@@H](n3c(=O)[nH]c4c(NCC(F)F)cccc43)CC2)ccc1C` [Example 324, Cis-4-{4-[(2,2-difluoroethyl)amino]-2-oxo-2,3-dihydro-1H-1,3-benzodiazol-1-yl}-N-(3-methoxy-4-methylphenyl)cyclohexane-1-carboxamide] had an IC50 against OGG1 of 0.0969 µM.

As a reminder, the EC50 is the concentration needed to bring the measured effect to its halfway point. A word on the IC50: it is the point on the concentration scale where inhibition reaches its midpoint.
